# Experimental data published in article PMC12631574, “Structure–activity relationships of hydrophobic small molecule irreversible inhibitors of tissue transglutaminase” (RSC Medicinal Chemistry, 2025).
# Biological target: T1, tissue transglutaminase (TG2), C-terminal His-tag TG2 (Homo sapiens, UniProt P21980)
# T1 construct: host or cells: Novagen Rosetta 2 (DE3) E. coli
# T1 sequence (P21980 1-687): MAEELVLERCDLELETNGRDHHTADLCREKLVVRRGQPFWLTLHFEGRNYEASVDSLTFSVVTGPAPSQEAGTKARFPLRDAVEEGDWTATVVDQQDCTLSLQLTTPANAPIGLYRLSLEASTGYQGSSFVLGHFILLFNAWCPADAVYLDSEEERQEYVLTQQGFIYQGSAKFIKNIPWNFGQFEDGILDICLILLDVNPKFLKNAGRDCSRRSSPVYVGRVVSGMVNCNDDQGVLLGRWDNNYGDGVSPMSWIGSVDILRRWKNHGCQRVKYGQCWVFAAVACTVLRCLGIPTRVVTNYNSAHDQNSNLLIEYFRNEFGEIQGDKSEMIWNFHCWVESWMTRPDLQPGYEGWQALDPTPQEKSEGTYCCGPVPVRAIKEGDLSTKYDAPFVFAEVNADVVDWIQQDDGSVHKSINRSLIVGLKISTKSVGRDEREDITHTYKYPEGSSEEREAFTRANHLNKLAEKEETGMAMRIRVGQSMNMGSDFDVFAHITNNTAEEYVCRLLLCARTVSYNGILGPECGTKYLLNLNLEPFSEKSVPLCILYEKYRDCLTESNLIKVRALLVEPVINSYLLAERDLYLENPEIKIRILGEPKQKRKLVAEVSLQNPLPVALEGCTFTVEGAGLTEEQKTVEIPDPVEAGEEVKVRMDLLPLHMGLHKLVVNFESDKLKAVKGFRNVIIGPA
# Test: continuous AL5 hydrolysis assay of irreversible TG2 inhibition (kobs vs [I]/α)
# Assay type: biochemical
# [1] = irreversible inhibition, AL5 100 μM, pH 6.9, 25 °C, triplicate
# [2] = supplement, kinetics data and fitting
smiles,measurement,setting,value
"C=CC(=O)NCC(=O)N1CCN(C(=O)c2cccc(Nc3ccccc3)c2)CC1 [Compound 22f, N-2-[4-[(((3-Phenylamino)phenyl)carbonyl)-1-piperazinyl]-2-oxoethyl]propenamide]",kinact,,0.0165 s⁻¹
same,KI (inactivation),[1],31.7 ± 8.6 µM
same,KI (inactivation),[2],31.7 ± 8.6 µM
same,kinact/KI,[2],31.2 ± 10.0 × 103 M-1min-1
"C=CC(=O)NCC(=O)N1CCN(C(=O)c2ccc(Cc3ccccc3)cc2)CC1 [Compound 22g, N-2-[4-[((4-Benzylphenyl)carbonyl)-1-piperazinyl]-2-oxoethyl]propenamide]",kinact,,0.0253 s⁻¹
same,KI (inactivation),[1],58.1 ± 9.4 µM
same,KI (inactivation),[2],58.1 ± 9.4 µM
same,kinact/KI,[2],26.1 ± 4.9 × 103 M-1min-1
"C=CC(=O)NCC(=O)N1CCN(C(=O)C2CCC2)CC1 [Compound 6b, N-2-[4-[(Cyclobutanecarbonyl)-1-piperazinyl]-2-oxoethyl]propenamide]",kinact,,0.00842 s⁻¹
same,KI (inactivation),[1],20.2 ± 3.5 µM
same,KI (inactivation),[2],20.2 ± 3.5 µM
same,kinact/KI,[2],25.0 ± 4.7 × 103 M-1min-1
"C=CC(=O)NCC(=O)N1CCN(C(=O)c2ccccc2-c2ccccc2)CC1 [Compound 7a, N-2-[4-[((2-Biphenyl)carbonyl)-1-piperazinyl]-2-oxoethyl]propenamide]",kinact,,0.00958 s⁻¹
same,KI (inactivation),[1],3.2 ± 1 µM
same,KI (inactivation),[2],3.23 ± 1.14 µM
same,kinact/KI,[2],178.0 ± 68.6 × 103 M-1min-1
"C=CC(=O)NCC(=O)N1CCN(C(=O)c2cccc(Oc3ccccc3)c2)CC1 [Compound 22e, N-2-[4-[((3-Phenoxyphenyl)carbonyl)-1-piperazinyl]-2-oxoethyl]propenamide]",kinact,,0.0223 s⁻¹
same,KI (inactivation),[1],11.9 ± 4 µM
same,KI (inactivation),[2],11.9 ± 4 µM
same,kinact/KI,[2],112 ± 41 × 103 M-1min-1
"C=CC(=O)NCC(=O)N1CCN(C(=O)c2ccc(-c3cccc(C)c3)cc2)CC1 [Compound 21h, N-2-[4-[((3′-Methyl-4-biphenyl)carbonyl)-1-piperazinyl]-2-oxoethyl]propenamide]",kinact,,0.0148 s⁻¹
same,KI (inactivation),[1],38.9 ± 17.7 µM
same,KI (inactivation),[2],38.9 ± 17.7 µM
same,kinact/KI,[2],22.8 ± 11.7 × 103 M-1min-1
"C=CC(=O)NCC(=O)N1CCN(C(=O)C2CCCCC2)CC1 [Compound 6d, N-2-[4-[(Cyclohexanecarbonyl)-1-piperazinyl]-2-oxoethyl]propenamide]",kinact,,0.0177 s⁻¹
same,KI (inactivation),[1],7.1 ± 1.3 µM
same,KI (inactivation),[2],7.14 ± 1.34 µM
same,kinact/KI,[2],149 ± 31 × 103 M-1min-1
"C=CC(=O)NCC(=O)N1CCN(S(=O)(=O)C23CC4CC(CC(C4)C2)C3)CC1 [Compound 38, N-[2-(4-((Adamantan-1-yl)sulfonyl)piperazin-1-yl)-2-oxoethyl]propenamide]",kinact,,0.0162 s⁻¹
same,KI (inactivation),[1],7.56 ± 1.87 µM
same,KI (inactivation),[2],7.56 ± 1.87 µM
same,kinact/KI,[2],129 ± 36 × 103 M-1min-1
"C=CC(=O)NCC(=O)N1CCN(C(=O)c2ccccc2Cc2ccccc2)CC1 [Compound 22a, N-2-[4-[((2-Benzylphenyl)carbonyl)-1-piperazinyl]-2-oxoethyl]propenamide]",kinact,,0.0146 s⁻¹
same,KI (inactivation),[1],14.2 ± 3.3 µM
same,KI (inactivation),[2],14.2 ± 3.3 µM
same,kinact/KI,[2],61.3 ± 15.9 × 103 M-1min-1
"C=CC(=O)NCC(=O)N1CCN(C(=O)C2CCCC2)CC1 [Compound 6c, N-2-[4-[(Cyclopentanecarbonyl)-1-piperazinyl]-2-oxoethyl]propenamide]",kinact,,0.00868 s⁻¹
same,KI (inactivation),[1],13 ± 1.6 µM
same,KI (inactivation),[2],13 ± 1.6 µM
same,kinact/KI,[2],40.0 ± 5.3 × 103 M-1min-1
"C=CC(=O)NCC(=O)N1CCN(C(=O)c2cccc(-c3ccccc3C)c2)CC1 [Compound 21d, N-2-[4-[((2′-Methyl-3-biphenyl)carbonyl)-1-piperazinyl]-2-oxoethyl]propenamide]",kinact,,0.012 s⁻¹
same,KI (inactivation),[1],1.1 ± 0.1 µM
same,KI (inactivation),[2],1.13 ± 0.099 µM
same,kinact/KI,[2],636 ± 58 × 103 M-1min-1
"C=CC(=O)NCC(=O)N1CCN(C(=O)c2ccccc2-c2ccccc2C)CC1 [Compound 21a, N-2-[4-[((2′-Methyl-2-biphenyl)carbonyl)-1-piperazinyl]-2-oxoethyl]propenamide]",kinact,,0.00955 s⁻¹
same,KI (inactivation),[1],4.8 ± 1 µM
same,KI (inactivation),[2],4.85 ± 1.02 µM
same,kinact/KI,[2],118 ± 27 × 103 M-1min-1
"C=CC(=O)NCC(=O)N1CCN(C(=O)c2ccccc2Oc2ccccc2)CC1 [Compound 22b, N-2-[4-[((2-Phenoxyphenyl)carbonyl)-1-piperazinyl]-2-oxoethyl]propenamide]",kinact,,0.0143 s⁻¹
same,KI (inactivation),[1],9.1 ± 0.8 µM
same,KI (inactivation),[2],9.06 ± 0.8 µM
same,kinact/KI,[2],94.8 ± 9.0 × 103 M-1min-1
"C=CC(=O)NCC(=O)N1CCN(C(=O)c2cccc(-c3ccc(C)cc3)c2)CC1 [Compound 21f, N-2-[4-[((4′-Methyl-3-biphenyl)carbonyl)-1-piperazinyl]-2-oxoethyl]propenamide]",kinact,,0.0092 s⁻¹
same,KI (inactivation),[1],2.3 ± 0.6 µM
same,KI (inactivation),[2],2.29 ± 0.66 µM
same,kinact/KI,[2],241 ± 74 × 103 M-1min-1
"C=CC(=O)NCC(=O)N1CCN(C(=O)c2ccccc2-c2cccc(C)c2)CC1 [Compound 21b, N-2-[4-[((3′-Methyl-2-biphenyl)carbonyl)-1-piperazinyl]-2-oxoethyl]propenamide]",kinact,,0.00902 s⁻¹
same,KI (inactivation),[1],2.6 ± 0.7 µM
same,KI (inactivation),[2],2.64 ± 0.72 µM
same,kinact/KI,[2],205 ± 60 × 103 M-1min-1
"C=CC(=O)NCC(=O)N1CCN(C(=O)c2ccccc2-c2ccc(C)cc2)CC1 [Compound 21c, N-2-[4-[((4′-Methyl-2-biphenyl)carbonyl)-1-piperazinyl]-2-oxoethyl]propenamide]",kinact,,0.00807 s⁻¹
same,KI (inactivation),[1],8.3 ± 2.1 µM
same,KI (inactivation),[2],8.28 ± 2.08 µM
same,kinact/KI,[2],58.5 ± 16.2 × 103 M-1min-1
"C=CC(=O)NCC(=O)N1CCN(C(=O)C2CCCCCC2)CC1 [Compound 6e, N-2-[4-[(Cycloheptanecarbonyl)-1-piperazinyl]-2-oxoethyl]propenamide]",kinact,,0.0099 s⁻¹
same,KI (inactivation),[1],21.5 ± 11 µM
same,KI (inactivation),[2],21.5 ± 11 µM
same,kinact/KI,[2],27.6 ± 16.1 × 103 M-1min-1
"C=CC(=O)NCC(=O)N1CCN(C(=O)c2cccc(Cc3ccccc3)c2)CC1 [Compound 22d, N-2-[4-[((3-benzylphenyl)carbonyl)-1-piperazinyl]-2-oxoethyl]propenamide]",kinact,,0.0168 s⁻¹
same,KI (inactivation),[1],8.8 ± 2.7 µM
same,KI (inactivation),[2],8.84 ± 2.72 µM
same,kinact/KI,[2],114 ± 38 × 103 M-1min-1
"C=CC(=O)NCC(=O)N1CCN(C(=O)c2cccc(-c3cccc(C)c3)c2)CC1 [Compound 21e, N-2-[4-[((3′-Methyl-3-biphenyl)carbonyl)-1-piperazinyl]-2-oxoethyl]propenamide]",kinact,,0.0104 s⁻¹
same,KI (inactivation),[1],4.4 ± 2.8 µM
same,KI (inactivation),[2],4.42 ± 2.83 µM
same,kinact/KI,[2],141 ± 98 × 103 M-1min-1
"C=CC(=O)NCC(=O)N1CCN(C(=O)c2ccc(-c3ccccc3)cc2)CC1 [Compound 7c, N-2-[4-[((4-Biphenyl)carbonyl)-1-piperazinyl]-2-oxoethyl]propenamide]",kinact,,0.0118 s⁻¹
same,KI (inactivation),[1],41.1 ± 32.2 µM
same,KI (inactivation),[2],41.1 ± 32.3 µM
same,kinact/KI,[2],17.2 ± 15.5 × 103 M-1min-1
"C=CC(=O)NCC(=O)N1CCN(C(=O)c2ccccc2)CC1 [Compound 6f, N-2-[4-[(Benzoyl)-1-piperazinyl]-2-oxoethyl]propenamide]",kinact,,0.00827 s⁻¹
same,KI (inactivation),[1],8.1 ± 2.5 µM
same,KI (inactivation),[2],8.12 ± 2.47 µM
same,kinact/KI,[2],61.1 ± 20.0 × 103 M-1min-1
"C=CC(=O)NCC(=O)N1CCN(C(=O)c2cccc(-c3ccccc3)c2)CC1 [Compound 7b, N-2-[4-[((3-Biphenyl)carbonyl)-1-piperazinyl]-2-oxoethyl]propenamide]",kinact,,0.0118 s⁻¹
same,KI (inactivation),[1],5.3 ± 1.4 µM
same,KI (inactivation),[2],5.29 ± 1.39 µM
same,kinact/KI,[2],133.9 ± 38.4 × 103 M-1min-1
